Experimental data reported in ChEMBL document CHEMBL6134783, “Discovery of hybrid Glypromate conjugates with neuroprotective activity against paraquat-induced toxicity” (RSC Med Chem, 2024).
Active and inactive are the calls of the source. The calls are words filed in the database; no cut-off is given here.

How the values were obtained:
[1] = Neurotoxicity against non-differentiated human SH-SY5Y cells assessed as reduction in cell viability at 100 uM measured after 24 hrs by MTT assay relative to control; type: toxicity, cell-based
SH-SY5Y [2] = experiment: Neuroprotective activity in amyloid beta (25 to 35)-induced non-differentiated human SH-SY5Y cells assessed as reduction in protein aggregation at 100 uM incubated for 24 hrs by ThT fluorescence assay relative to control; type: functional; design: scale not given: the % may be the effect or the level left
SH-SY5Y [3] = experiment: Neuroprotective activity against PQ-induced cytotoxicity in differentiated human SH-SY5Y cells assessed as viable cells at 100 uM incubated for 48 hrs by MTT reduction assay (reference value: 46.02 +/- 3.61%); type: functional; settings: read-out: Activity
SH-SY5Y [4] = experiment: Neuroprotective activity against PQ-induced cytotoxicity in differentiated human SH-SY5Y cells assessed as NR uptake at 100 uM incubated for 48 hrs by NR uptake assay (reference value: 36.78 +/- 9.57%); type: functional
[5] = Neurotoxicity against retinoic acid/TPA differentiated human SH-SY5Y cells assessed as reduction in cell viability at 100 uM measured after 48 hrs by MTT assay relative to control; type: toxicity, cell-based
SH-SY5Y [6] = experiment: Neuroprotective activity against 6-OHDA-induced cytotoxicity in differentiated human SH-SY5Y cells at 100 uM incubated for 48 hrs by MTT reduction assay relative to control; type: functional
SH-SY5Y [7] = experiment: Neuroprotective activity against 6-OHDA-induced cytotoxicity in differentiated human SH-SY5Y cells at 100 uM incubated for 48 hrs by NR uptake assay; type: functional, cell-based
SH-SY5Y [8] = experiment: Neuroprotective activity against PQ-induced cytotoxicity in differentiated human SH-SY5Y cells at 100 uM incubated for 48 hrs by MTT reduction assay; type: functional; design: scale not given: the % may be the effect or the level left
SH-SY5Y [9] = experiment: Neuroprotective activity against 6-OHDA-induced cytotoxicity in differentiated human SH-SY5Y cells assessed as NR uptake at 100 uM incubated for 48 hrs by NR uptake assay (reference value: 61.31 +/- 12.93%); type: functional
SH-SY5Y [10] = experiment: Neuroprotective activity against PQ-induced cytotoxicity in differentiated human SH-SY5Y cells at 100 uM incubated for 48 hrs by NR uptake assay; type: functional

| Structure (SMILES) | Activity [1] | Activity (SH-SY5Y [2]) | Cell viability (% of control) [5] | Activity (SH-SY5Y [6]) | Activity (SH-SY5Y [7]) | also measured |
| --- | --- | --- | --- | --- | --- | --- |
| COC(=O)CC[C@H](NC(=O)[C@@H]1[C@H]2CC[C@H](C2)N1C(=O)CNC(=O)OC(C)(C)C)C(=O)NC12CC3CC(CC(C3)C1)C2 | 90.79% | – | – | – | – | – |
| COC(=O)CC[C@H](NC(=O)[C@@H]1[C@H]2CC[C@H](C2)N1C(=O)CN(C)C)C(=O)NC12CC3CC(CC(C3)C1)C2 | 97.93% | 24% | – | – | – | – |
| N[C@@H]1CCc2ccccc21 | – | – | – | – | – | viability at 100 µM (SH-SY5Y [3]): 23.6%; Activity (SH-SY5Y [4]): 22.95% |
| COC(=O)CC[C@H](NC(=O)[C@@H]1[C@H]2CC[C@H](C2)N1C(=O)CN)C(=O)NC12CC3CC(CC(C3)C1)C2.O=C(O)C(F)(F)F | 93.91% | 20% | 102.46% | inactive | inactive | Activity (SH-SY5Y [8]): 5% |
| COC(=O)[C@H](CCC(=O)N[C@@H]1CCc2ccccc21)NC(=O)[C@@H]1[C@H]2CC[C@H](C2)N1C(=O)CNC(=O)OC(C)(C)C | 32.77% | – | 94.07% | inactive | inactive | – |
| COC(=O)CC[C@H](NC(=O)[C@@H]1CCCN1C(=O)CN)C(=O)N[C@@H]1CCc2ccccc21 | – | Active | – | – | – | – |
| COC(=O)CC[C@H](NC(=O)[C@@H]1[C@H]2CC[C@H](C2)N1C(=O)CN(C)C)C(=O)N[C@@H]1CCc2ccccc21 | – | – | 100.56% | inactive | inactive | – |
| COC(=O)[C@H](CCC(=O)NC12CC3CC(CC(C3)C1)C2)NC(=O)[C@@H]1[C@H]2CC[C@H](C2)N1C(=O)CN.O=C(O)C(F)(F)F | 89.15% | – | 96.82% | inactive | inactive | Activity (SH-SY5Y [4]): 40.94% |
| NCC(=O)N1CCC[C@H]1C(=O)N[C@@H](CCC(=O)O)C(=O)O | – | 12% | – | 12% | – | Activity (SH-SY5Y [9]): 25.32%; viability at 100 µM (SH-SY5Y [3]): 25.3%; Activity (SH-SY5Y [4]): 36.33% |
| COC(=O)CC[C@H](NC(=O)[C@@H]1[C@H]2CC[C@H](C2)N1C(=O)CN)C(=O)N[C@@H]1CCc2ccccc21.O=C(O)C(F)(F)F | 96.04% | inactive | 98.48% | inactive | inactive | Activity (SH-SY5Y [8]): 4%; Activity (SH-SY5Y [4]): 40.76% |
| COC(=O)CC[C@H](NC(=O)[C@@H]1[C@H]2CC[C@H](C2)N1C(=O)CNC(=O)OC(C)(C)C)C(=O)N[C@@H]1CCc2ccccc21 | 86.49% | inactive | – | – | – | – |
| COC(=O)[C@H](CCC(=O)NC12CC3CC(CC(C3)C1)C2)NC(=O)[C@@H]1[C@H]2CC[C@H](C2)N1C(=O)CNC(=O)OC(C)(C)C | 89.94% | – | – | – | – | – |
| COC(=O)[C@H](CCC(=O)NC12CC3CC(C)(CC(C)(C3)C1)C2)NC(=O)[C@@H]1[C@H]2CC[C@H](C2)N1C(=O)CN.O=C(O)C(F)(F)F | 32.77% | – | – | – | – | – |
| COC(=O)[C@H](CCC(=O)N[C@@H]1CCc2ccccc21)NC(=O)[C@@H]1CCCN1C(=O)CN | – | Active | – | – | – | – |
| COC(=O)[C@H](CCC(=O)NC12CC3CC(CC(C3)C1)C2)NC(=O)[C@@H]1CCCN1C(=O)CN | – | inactive | – | – | – | – |
| NC12CC3CC(CC(C3)C1)C2 [AMANTADINE] | – | 17% | – | – | – | – |
| COC(=O)CC[C@H](NC(=O)[C@@H]1[C@H]2CC[C@H](C2)N1C(=O)CNC(=O)OC(C)(C)C)C(=O)NC12CC3CC(C)(CC(C)(C3)C1)C2 | – | – | 98.1% | inactive | inactive | viability at 100 µM (SH-SY5Y [3]): 38.8% |
| COC(=O)[C@H](CCC(=O)NC12CC3CC(C)(CC(C)(C3)C1)C2)NC(=O)[C@@H]1[C@H]2CC[C@H](C2)N1C(=O)CN(C)C | 32.77% | – | 9.07% | – | – | – |
| COC(=O)[C@H](CCC(=O)N[C@@H]1CCc2ccccc21)NC(=O)[C@@H]1[C@H]2CC[C@H](C2)N1C(=O)CN(C)C | 90.95% | inactive | 96.47% | inactive | inactive | Activity (SH-SY5Y [8]): 12%; Activity (SH-SY5Y [10]): <=15% |
